Laboratory results taken from patent US9115059B2, “Oxime derivatives of 3,5-seco-4-nor-cholestane, pharmaceutical compositions containing same, and method for preparing same” (TROPHOS, priority 2008, dated 2015).

System: motoneurons
Test: Survival of motoneurons under trophic deprivation in vitro (calcein fluorescence)
Type: cell-based
Conditions: concentration 0.3 μM; E14 rat motoneurons, 3 days of culture in Neurobasal medium without trophic factors
Description: It may be useful to refer to patent application WO 0142784 of the applicant regarding culture of the motoneurons of the spinal cord.
The spinal cord of E14 rat embryos is dissected and the ventral part is dissociated by trituration after trypsinization.
The motoneurons are separated from the other spinal cells by a known method (Camu et al., 1993, Purification of spinal motoneurons from chicken and rat embryos by immunopanning. In “Immunoselection Strategies for Neural cell culture”, Neuroprotocols: A companion to Methods in Neurosciences 2, 191-199; Henderson et al., 1993, Neutrophins promote motoneuron survival and are present in embryonic limb bud. Nature 363 (6426):266-70).
The cells are centrifuged on a density gradient. The motoneurons are enriched in the fraction of large cells (the […]). The cells of this fraction are incubated with an anti-p75 antibody, a surface antigen present on motoneurons.
Secondary antibodies coupled to magnetic beads are added and the mixture of cells is passed through a column in a magnet (Arce et al., 1999 Cardiotrophin-1 requires LIFRbeta to promote survival of mouse motoneurons purified by a novel technique. J. Neurosci Res 55(1): 119-26). Only the motoneurons are retained: their purity is of the order of 90%.
The motoneurons are seeded at low density in culture wells on a polyornithine-laminin substrate in a Neurobasal medium (GIBCO) supplemented according to Raoul et al., 1999, Programmed cell death of embryonic motoneurons triggered through the Fas death receptor. J Cell Biol 147(5):1049-62.
Negative controls (absence of trophic factors) and positive controls (in the presence of BDNF (Brain-Derived Neurotrophic Factor) at 1 ng/ml, GDNF (Glial-Derived Neurotrophic Factor) at 1 ng/ml and CNTF (Ciliary Neurotrophic Factor) at 10 ng/ml, marketed by the American company PEPROTECH, Inc. and the company Sigma-Aldrich, are included in each series.
The test compounds are added 60 minutes after seeding and the cultures are kept at 37° C. under 5% CO2 for 3 days.
The motoneurons have a spontaneous tendency to die in the absence of neurotrophic factors (Pettmann and Henderson, 1998, Neuronal cell death. Neuron 20(4):633-47). After 3 days, survival is evaluated by measurement of fluorescence after incubation of the cells in the presence of calcein, which becomes fluorescent in living cells.
After 3 days of culture at 37° C., under 5% CO2 and at saturating humidity, up to 50% of the motoneurons seeded initially survive in the medium supplemented with neurotrophic factors, whereas less than 15% of the motoneurons survive in the culture medium without addition of neurotrophic factors.
The neuroprotective activity of the test compounds was evaluated by their capacity for preventing death of motoneurons when they are added to the Neurobasal medium (GIBCO) in comparison with the survival of motoneurons in the medium to which neurotrophic factors were added.
This survival rate is expressed by the number of living cells after treatment with the test compound relative to the survival induced by the neurotrophic factors. This ratio can therefore represent the percentage survival due to the compound tested relative to the survival induced by the neurotrophic factors. If the ratio is greater than 0, the compounds have a positive effect on survival of the motoneurons.
With CC(C)CCC[C@@H](C)[C@H]1CCC2C3CC/C(=N/O)[C@](C)(CCCN(C)C(=O)CCCC[C@@H]4SC[C@@H]5NC(=O)N[C@@H]54)C3CC[C@@]21C (stereo partly drawn) [Compound 4, 3-[(N-(+)-biotinoyl-N-methyl)amino]-4-nor-3,5-secocholestan-5-one oxime] the “Ratio (living cells after treatment with the test compound relative to the survival induced by the neurotrophic factors)” value was greater than 0.2.

Same assay, conditions: concentration 1 μM; E14 rat motoneurons, 3 days of culture in Neurobasal medium without trophic factors
In the case of CCC(C=CC(C)C1CCC2C3CCC(=NO)C(C)(CCCO)C3CCC12C)C(C)C (stereo not drawn) [Compound 12, 24β-ethyl-4-nor-3,5-secocholest-22-en-3-ol-5-one oxime], the “Ratio (living cells after treatment with the test compound relative to the survival induced by the neurotrophic factors)” value is reported as greater than 0.2. In the case of CC(C)=CCCC(C)C1CCC2C3CCC(=NO)C(C)(CCCO)C3CCC12C (stereo not drawn) [Compound 11, 4-nor-3,5-secocholest-24-en-3-ol-5-one oxime], the “Ratio (living cells after treatment with the test compound relative to the survival induced by the neurotrophic factors)” value is reported as greater than 0.2. With “7-hydroxyamino-4-nor-3,5-secocholest-6-year-3-ol-5-one oxime [Compound 9]” the “Ratio (living cells after treatment with the test compound relative to the survival induced by the neurotrophic factors)” value was greater than 0.2. With CCCC1(C)C(=NO)CCC2C1CCC1(C)C(C(C)CCCC(C)C)CCC21 (stereo not drawn) [Compound 7, 4-nor-3,5-secocholestan-5-one oxime] the “Ratio (living cells after treatment with the test compound relative to the survival induced by the neurotrophic factors)” value was greater than 0.2. With CC(C)CCCC(C)C1CCC2C3C=CC(=NO)C(C)(CCCO)C3CCC12C (stereo not drawn) [Compound 8, 4-nor-3,5-secocholest-6-en-3-ol-5-one oxime] the “Ratio (living cells after treatment with the test compound relative to the survival induced by the neurotrophic factors)” value was greater than 0.2. For CC(C)CCCC(C)C1CCC2C3CCC(=NO)C(C)(CCO)C3CCC12C (stereo not drawn) [Compound 10, 3,4-dinor-2,5-secocholestan-2-ol-5-one oxime], the “Ratio (living cells after treatment with the test compound relative to the survival induced by the neurotrophic factors)” value was greater than 0.2. For CC(C)CCCC(C)C1CCC2C3CCC(=NO)C(C)(CCC(O)C(F)(F)F)C3CCC12C (stereo not drawn) [Compound 3, 4-nor-3,5-seco-3-(trifluoromethyl)cholestan-3-ol-5-one oxime], the “Ratio (living cells after treatment with the test compound relative to the survival induced by the neurotrophic factors)” value was greater than 0.2. With CC(C)CCC[C@@H](C)[C@H]1CCC2C3CC/C(=N/O)[C@](C)(CCCN(C)c4ccc([N+](=O)[O-])c5nonc45)C3CC[C@@]21C (stereo partly drawn) [Compound 5, 3-[methyl-(7-nitro-2,1,3-benzoxadiazol-4-yl)amino]-4-nor-3,5-secocholestan-5-one oxime] the “Ratio (living cells after treatment with the test compound relative to the survival induced by the neurotrophic factors)” value was greater than 0.2.

Same assay, conditions: concentration 3 μM; E14 rat motoneurons, 3 days of culture in Neurobasal medium without trophic factors
With CC(CCCC(C)(C)O)C1CCC2C3CCC(=NO)C(C)(CCCO)C3CCC12C (stereo not drawn) [Compound 2, 4-nor-3,5-secocholestan-3,25-diol-5-one oxime] the “Ratio (living cells after treatment with the test compound relative to the survival induced by the neurotrophic factors)” value was greater than 0.2. In the case of CC(CCCC(C)(C)F)C1CCC2C3CCC(=NO)C(C)(CCCO)C3CCC12C (stereo not drawn) [Compound 6, 25-fluoro-4-nor-3,5-secocholestan-3-ol-5-one oxime], the “Ratio (living cells after treatment with the test compound relative to the survival induced by the neurotrophic factors)” value is reported as greater than 0.2.

System: avidins (streptavidin or neutravidin)
Test: not given
Conditions: cited from earlier work
For O=C(O)CCCC[C@@H]1SC[C@@H]2NC(=O)N[C@@H]21 [biotin], the “Ka (affinity of avidins for biotin)” value is given as ~10^7 M.
